{"source": "patent USRE47493E1", "about": "“Substituted bicyclic dihydropyrimidinones and their use as inhibitors of neutrophil elastase activity” (Boehringer Ingelheim International GmbH, priority 2014, dated 2019)", "molecular_target": "Human neutrophil elastase (Homo sapiens (Human), UniProt P08246)", "sequence (P08246 30-267)": "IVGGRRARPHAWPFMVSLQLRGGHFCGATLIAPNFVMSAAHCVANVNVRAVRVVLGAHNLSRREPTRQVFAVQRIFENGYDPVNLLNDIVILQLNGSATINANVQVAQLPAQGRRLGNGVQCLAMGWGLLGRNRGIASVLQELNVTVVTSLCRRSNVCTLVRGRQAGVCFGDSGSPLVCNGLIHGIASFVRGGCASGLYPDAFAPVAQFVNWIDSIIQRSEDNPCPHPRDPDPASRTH", "experiment": "Human Neutrophil Elastase Assay", "assay_type": "biochemical", "experimental": "Human Neutrophil Elastase Assay\nMaterials: Human neutrophil elastase was purchased from Calbiochem (Cat.No.: 324681) and the elastase substrate MeOSuc-Ala-Ala-Pro-Val-AMC from Bachem (Cat.No.: I-1270). All other materials were of the highest grade commercially available.\nThe following buffers were used: Compound buffer: 100 mM Tris, 500 mM NaCl, adjusted to pH 7.5; Assay buffer: 100 mM Tris, 500 mM NaCl, adjusted to pH 7.5, containing 0.01% BSA.\nAssay conditions: Test compounds were prediluted in DMSO and subsequently in compound buffer (5% DMSO final). 5 μL of these compound dilutions were mixed with 10 μl Neutrophil elastase (9 ng/ml in assay buffer) in a black 384 well OptiPlate (Perkin Elmer, Cat No.: 6007270) and incubated for 15 min at room temperature. Subsequently 10 μL substrate solution in assay buffer were added (250 nM final concentration) and the plates were incubated for 60 min at room temperature. After inactivation of the enzyme, fluorescence intensities were measured at 380 nm excitation and 460 nm emission wavelengths.\nEach plate contains wells with a high value control (DMSO+enzyme+substrate) and wells with a low value control (DMSO+inactivated enzyme+substrate). IC50 values were estimated using a sigmoidal concentration response curve with variable slope. Means of low values were taken as 0%, means of high values as 100%.", "key": {"[1]": {"details": "human neutrophil elastase, substrate MeOSuc-Ala-Ala-Pro-Val-AMC, pH 7.5, read-out: IC50"}}, "note": "Like-named read-outs stand apart in the source and are kept apart here.", "data": [{"smiles": "N#Cc1ccc(C2NC(=O)N(c3cccc(C(F)(F)F)c3)C3=C2C(=O)CCC3)cc1", "note": "(racemic) [Example 1, 4-(2,5-Dioxo-1-(3-(trifluoromethyl)phenyl)-1,2,3,4,5,6,7,8-octahydroquinazolin-4-yl)-benzonitrile]", "values": [{"measurement": "IC50", "setting": "[1]", "value": 28.5, "unit": "nM"}]}, {"smiles": "CS(=O)(=O)c1cc(C#N)ccc1C1NC(=O)N(c2cccc(C(F)(F)F)c2)C2=C1C(=O)CCC2", "note": "(racemic) [Example 18, 4-(2,5-Dioxo-1-(3-(trifluoromethyl)phenyl)-1,2,3,4,5,6,7,8-octahydroquinazolin-4-yl)-3-(methylsulfonyl)benzonitrile]", "values": [{"measurement": "IC50", "setting": "[1]", "value": 8.5, "unit": "nM"}]}, {"smiles": "CS(=O)(=O)c1cc(C#N)ccc1C1NC(=O)N(c2cccc(C(F)F)c2)C2=C1C(=O)CCC2", "note": "(racemic) [Example 19, 4-(1-(3-(Difluoromethyl)phenyl)-2,5-dioxo-1,2,3,4,5,6,7,8-octahydroquinazolin-4-yl)-3-(methylsulfonyl)benzonitrile]", "values": [{"measurement": "IC50", "setting": "[1]", "value": 10.7, "unit": "nM"}]}, {"smiles": "CN1C(=O)N(c2cccc(C(F)(F)F)c2)C2=C(C(=O)CCC2)C1c1ccc(C#N)cc1", "note": "(racemic) [Example 20, 4-(1-(3-(Trifluoromethyl)phenyl)-3-methyl-2,5-dioxo-1,2,3,4,5,6,7,8-octahydroquinazolin-4-yl)benzonitrile]", "values": [{"measurement": "IC50", "setting": "[1]", "value": 7.3, "unit": "nM"}]}, {"smiles": "COC(=O)CN1C(=O)N(c2cccc(C(F)(F)F)c2)C2=C(C(=O)CCC2)C1c1ccc(C#N)cc1", "note": "(racemic) [Example 31, Methyl 2-(4-(4-Cyanophenyl)-2,5-dioxo-1-(3-(trifluoromethyl)phenyl)-1,2,5,6,7,8-hexahydroquinazolin-3(4H)-yl)acetate]", "values": [{"measurement": "IC50", "setting": "[1]", "value": 18.4, "unit": "nM"}]}, {"smiles": "CCS(=O)(=O)c1cc(C#N)ccc1[C@@H]1NC(=O)N(c2cccc(C(F)(F)F)c2)C2=C1C(=O)CCC2", "note": "(single isomer, unassigned) [Example 54B]", "values": [{"measurement": "IC50", "setting": "[1]", "value": 1870, "unit": "nM"}]}, {"smiles": "N#Cc1ccc([C@H]2NC(=O)N(c3cccc(C(F)(F)F)c3)C3=C2C(=O)CCC3)cc1", "note": "[Example 1A, (R)-4-(2,5-Dioxo-1-(3-(trifluoromethyl)phenyl)-1,2,3,4,5,6,7,8-octahydroquinazolin-4-yl)benzonitrile]", "values": [{"measurement": "IC50", "setting": "[1]", "value": 9.5, "unit": "nM"}]}, {"smiles": "N#Cc1ccc([C@@H]2NC(=O)N(c3cccc(C(F)(F)F)c3)C3=C2C(=O)CCC3)cc1", "note": "[Example 1B, (S)-4-(2,5-Dioxo-1-(3-(trifluoromethyl)phenyl)-1,2,3,4,5,6,7,8-octahydroquinazolin-4-yl)benzonitrile]", "values": [{"measurement": "IC50", "setting": "[1]", "value": 6560, "unit": "nM"}]}, {"smiles": "CS(=O)(=O)c1cc(C#N)ccc1[C@@H]1NC(=O)N(c2cccc(C(F)(F)F)c2)C2=C1C(=O)CCC2", "note": "[Example 18B, (R)-4-(2,5-Dioxo-1-(3-(trifluoromethyl)phenyl)-1,2,3,4,5,6,7,8-octahydroquinazolin-4-yl)-3-(methylsulfonyl)benzonitrile]", "values": [{"measurement": "IC50", "setting": "[1]", "value": 2510, "unit": "nM"}, {"measurement": "IC50", "setting": "read-out: IC50, inhibition of neutrophil elastase", "value": 2510, "unit": "nM"}]}, {"smiles": "CS(=O)(=O)c1cc(C#N)ccc1[C@@H]1NC(=O)N(c2cccc(C(F)F)c2)C2=C1C(=O)CCC2", "note": "[Example 19B, (R)-4-(1-(3-(Difluoromethyl)phenyl)-2,5-dioxo-1,2,3,4,5,6,7,8-octahydroquinazolin-4-yl)-3-(methylsulfonyl)benzonitrile]", "values": [{"measurement": "IC50", "setting": "[1]", "value": 1660, "unit": "nM"}]}, {"smiles": "CN1C(=O)N(c2cccc(C(F)(F)F)c2)C2=C(C(=O)CCC2)[C@H]1c1ccc(C#N)cc1", "note": "[Example 20A, (R)-4-(1-(3-(Trifluoromethyl)phenyl)-3-methyl-2,5-dioxo-1,2,3,4,5,6,7,8-octahydroquinazolin-4-yl)benzonitrile]", "values": [{"measurement": "IC50", "setting": "[1]", "value": 2.2, "unit": "nM"}]}, {"smiles": "CN1C(=O)N(c2cccc(C(F)(F)F)c2)C2=C(C(=O)CCC2)[C@@H]1c1ccc(C#N)cc1", "note": "[Example 20B, (S)-4-(1-(3-(Trifluoromethyl)phenyl)-3-methyl-2,5-dioxo-1,2,3,4,5,6,7,8-octahydroquinazolin-4-yl)benzonitrile]", "values": [{"measurement": "IC50", "setting": "[1]", "value": 1340, "unit": "nM"}]}, {"smiles": "COC(=O)CN1C(=O)N(c2cccc(C(F)(F)F)c2)C2=C(C(=O)CCC2)[C@H]1c1ccc(C#N)cc1", "note": "[Example 31A, (R)-Methyl 2-(4-(4-Cyanophenyl)-2,5-dioxo-1-(3-(trifluoromethyl)phenyl)-1,2,5,6,7,8-hexahydroquinazolin-3(4H)-yl)acetate]", "values": [{"measurement": "IC50", "setting": "[1]", "value": 7.6, "unit": "nM"}]}]}
